How the values were obtained:
BTK = BTK (Homo sapiens, UniProt Q06187); set-up: BTK kinase domain was expressed and purified as previously reported; made in house; method as in Reddi et al., J. Am. Chem. Soc. 2021, 143 (13), 4979–4992; details: ref Reddi et al., J. Am. Chem. Soc. 2021, 143 (13), 4979–4992; cited from earlier work
BTK-1h = molecular target: T1, BTK-1h (Homo sapiens, UniProt Q06187); experiment: High-throughput screening with 1h-labeled BTK; assay type: binding; details: Dataset S2A; 200 μM compound, BTK-1h, 32 °C, 10 min
T1 construct: The BTK kinase domain was diluted to 2 μM in the buffer, and 2 μM 1h was added; made in house
Method: The collection was composed of BTK binding compounds obtained in our previous luminescence screen[37] (Data set S2). […] The resulting BTK-1h (50 μL) was added to the inhibitors.

Chain of BTK (Q06187 402-655 limits assumed): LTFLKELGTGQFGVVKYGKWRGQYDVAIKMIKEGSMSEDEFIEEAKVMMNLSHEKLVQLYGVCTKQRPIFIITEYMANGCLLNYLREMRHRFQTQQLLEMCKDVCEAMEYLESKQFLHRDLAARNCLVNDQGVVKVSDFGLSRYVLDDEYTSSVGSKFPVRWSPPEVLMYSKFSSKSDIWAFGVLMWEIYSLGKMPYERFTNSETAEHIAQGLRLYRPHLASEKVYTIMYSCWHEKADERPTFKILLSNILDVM
T1 sequence (Q06187 402-655): as the sequence (Q06187 402-655 limits assumed) above

**Q.** What does the source list for `OC1CCC(Oc2cccc3cnc(Nc4ccc5nc[nH]c5c4)nc23)CC1` (stereo not drawn) [PCM-0215798-001]?
**A.** BTK Inhibition reported in luminescence assay* (BTK): 66.2; FI (650)/FI (620) (BTK-1h): 1.285; FI (BTK-1h)/FI (BTK-1h+Inhibitor) at 620 nm (BTK-1h): 1.0276

**Q.** Which results are given for `Cc1ccccc1C(=O)Nc1ccc(C(=O)N2CCCC(N(C)C)c3ccccc32)cc1` (stereo not drawn) [PCM-0095424-002]?
**A.** BTK Inhibition reported in luminescence assay* (BTK): 70; FI (650)/FI (620) (BTK-1h): 1.034; FI (BTK-1h)/FI (BTK-1h+Inhibitor) at 620 nm (BTK-1h): 1.021

**Q.** Which “BTK Inhibition reported in luminescence assay*” value (from here on “BTK Inhibition reported”) (BTK) does the source give for `CCCCCC/C=C\CCCCCCCc1cccc(O)c1C(=O)O` [PCM-0216327-001] here?
**A.** 84.2

**Q.** What about the “FI (650)/FI (620)” value (BTK-1h) of the same compound?
**A.** 3.101

**Q.** What about the “FI (BTK-1h)/FI (BTK-1h+Inhibitor) at 620 nm” value (BTK-1h) of the same compound?
**A.** 1.308

**Q.** Which “BTK Inhibition reported” value (BTK) does the source give for `O=C(O)C1(Cc2cccc(Nc3nccs3)n2)CCC(Oc2cccc(Cl)c2F)CC1` (stereo not drawn) [PCM-0095334-002] here?
**A.** 102.1

**Q.** What about the “FI (650)/FI (620)” value (BTK-1h) of the same compound?
**A.** 1.3013

**Q.** What about the “FI (BTK-1h)/FI (BTK-1h+Inhibitor) at 620 nm” value (BTK-1h) of the same compound?
**A.** 1.347

**Q.** What does the source list for `Cc1nc(Nc2ccc(F)cc2)nc(N2CCc3ccccc3C2C)c1C.Cl` (stereo not drawn) [PCM-0216015-001]?
**A.** BTK Inhibition reported in luminescence assay* (BTK): 79.3; FI (650)/FI (620) (BTK-1h): 1.147; FI (BTK-1h)/FI (BTK-1h+Inhibitor) at 620 nm (BTK-1h): 1.02

**Q.** Which “BTK Inhibition reported” value (BTK) does the source give for `CC(C)=CCc1cc2c(cc1O)O[C@H](c1ccc(O)cc1)CC2=O` [PCM-0216180-001] here?
**A.** 54.1

**Q.** And the “FI (650)/FI (620)” value (BTK-1h)?
**A.** 1.0081

**Q.** What about the “FI (BTK-1h)/FI (BTK-1h+Inhibitor) at 620 nm” value (BTK-1h) of the same compound?
**A.** 1.015

**Q.** With `O=C(Nc1cccc2c(=O)cc(-c3nn[nH]n3)oc12)c1ccc(OCCCCc2ccccc2)cc1` [PCM-0095155-002] as the compound, how does the “BTK Inhibition reported” value (BTK) read?
**A.** 73.8

**Q.** And the “FI (650)/FI (620)” value (BTK-1h)?
**A.** 1.503

**Q.** What about the “FI (BTK-1h)/FI (BTK-1h+Inhibitor) at 620 nm” value (BTK-1h) of the same compound?
**A.** 1.506

**Q.** Which “BTK Inhibition reported” value (BTK) does the source give for `Cl.O=C(c1ccc(OCCN2CCCCC2)cc1)c1c(-c2ccc(O)cc2)sc2cc(O)ccc12` [PCM-0065394-003] here?
**A.** 85.5

**Q.** What about the “FI (650)/FI (620)” value (BTK-1h) of the same compound?
**A.** 1.378

**Q.** And the “FI (BTK-1h)/FI (BTK-1h+Inhibitor) at 620 nm” value (BTK-1h)?
**A.** 1.018

**Q.** Which “BTK Inhibition reported” value (BTK) does the source give for `O=C(Nc1ccc(OC(F)(F)F)cc1)c1sccc1NCc1ccnc2ccccc12` [PCM-0094951-002] here?
**A.** 90.3

**Q.** And the “FI (650)/FI (620)” value (BTK-1h)?
**A.** 1.167

**Q.** What about the “FI (BTK-1h)/FI (BTK-1h+Inhibitor) at 620 nm” value (BTK-1h) of the same compound?
**A.** 1.045

**Q.** Which “BTK Inhibition reported” value (BTK) does the source give for `COC(=O)C1=C(C)NC(C)=C(C(=O)OCCN2CCN(C(c3ccccc3)c3ccccc3)CC2)C1c1cccc([N+](=O)[O-])c1.Cl.Cl` (stereo not drawn) [PCM-0090281-005] here?
**A.** 101.2

**Q.** What about the “FI (650)/FI (620)” value (BTK-1h) of the same compound?
**A.** 1.357

**Q.** What about the “FI (BTK-1h)/FI (BTK-1h+Inhibitor) at 620 nm” value (BTK-1h) of the same compound?
**A.** 1.072

**Q.** For `CS(=O)(=O)O.O=C(Nc1cccc(Cl)c1)Nc1ncc(CCNc2ncnc3ccsc23)s1` [PCM-0094983-002], which “BTK Inhibition reported” value (BTK) is on record?
**A.** 73.1

**Q.** What about the “FI (650)/FI (620)” value (BTK-1h) of the same compound?
**A.** 1.066

**Q.** What about the “FI (BTK-1h)/FI (BTK-1h+Inhibitor) at 620 nm” value (BTK-1h) of the same compound?
**A.** 1.085

**Q.** For `Cc1cc(N2CCOCC2)cc2[nH]c(-c3c(NC[C@@H](O)c4cccc(Cl)c4)cc[nH]c3=O)nc12` [PCM-0214699-001], which “BTK Inhibition reported” value (BTK) is on record?
**A.** 109

**Q.** What about the “FI (650)/FI (620)” value (BTK-1h) of the same compound?
**A.** 1.235

**Q.** What about the “FI (BTK-1h)/FI (BTK-1h+Inhibitor) at 620 nm” value (BTK-1h) of the same compound?
**A.** 1.093

**Q.** What does the source list for `COC(=O)C1=C(C)NC(C)=C(C(=O)O[C@@H]2CCCN(Cc3ccccc3)C2)[C@@H]1c1cccc([N+](=O)[O-])c1.Cl` [PCM-0214706-001]?
**A.** BTK Inhibition reported in luminescence assay* (BTK): 80.9; FI (650)/FI (620) (BTK-1h): 1.754; FI (BTK-1h)/FI (BTK-1h+Inhibitor) at 620 nm (BTK-1h): 1.03

**Q.** For `Cn1cc(-c2cc(Oc3cc(F)c(NC(=O)C4(C(=O)Nc5ccccc5)CC4)cc3F)ccn2)cn1` [PCM-0216116-001], which “BTK Inhibition reported” value (BTK) is on record?
**A.** 88.8

**Q.** And the “FI (650)/FI (620)” value (BTK-1h)?
**A.** 1.3565

**Q.** And the “FI (BTK-1h)/FI (BTK-1h+Inhibitor) at 620 nm” value (BTK-1h)?
**A.** 1.092

Reference: PMC8662641, “Site-Specific Labeling of Endogenous Proteins Using CoLDR Chemistry” (Journal of the American Chemical Society, 2021)
